Counter-ions that a name gives are not always drawn. Like-named read-outs stand apart in the source and are kept apart here.
Biological target: T1, human Nav1.8/b3 (Homo sapiens, UniProt Q9Y5Y9)
T1 construct: expressed in transfected cells; host or cells: CHO
Experiment: Compound Profiling Human NaV1.8/β3 Cell Line—SyncroPatch384PE Assay (automated patch clamp, stably transfected CHO cells)
Type: cell-based
Details: Nav1.8/b3 CHO cells

[1] = P1 (IC50, resting state block), P1 measurement, resting state block, holding potential −120 mV, third set of compounds
[2] = P2 (IC50, inactivated state block), P2 measurement, inactivated state block, inactivation step −35 mV 10 sec, third set of compounds
[3] = P1 (IC50, resting state block), P1 measurement, resting state block, holding potential −120 mV, second set of compounds
[4] = P2 (IC50, inactivated state block), P2 measurement, inactivated state block, inactivation step −35 mV 10 sec, second set of compounds
[5] = P1 (IC50, resting state block), P1 measurement, resting state block, holding potential −120 mV, first set of compounds
[6] = P2 (IC50, inactivated state block), P2 measurement, inactivated state block, inactivation step −35 mV 10 sec, first set of compounds

T1 sequence (Q9Y5Y9 whole entry): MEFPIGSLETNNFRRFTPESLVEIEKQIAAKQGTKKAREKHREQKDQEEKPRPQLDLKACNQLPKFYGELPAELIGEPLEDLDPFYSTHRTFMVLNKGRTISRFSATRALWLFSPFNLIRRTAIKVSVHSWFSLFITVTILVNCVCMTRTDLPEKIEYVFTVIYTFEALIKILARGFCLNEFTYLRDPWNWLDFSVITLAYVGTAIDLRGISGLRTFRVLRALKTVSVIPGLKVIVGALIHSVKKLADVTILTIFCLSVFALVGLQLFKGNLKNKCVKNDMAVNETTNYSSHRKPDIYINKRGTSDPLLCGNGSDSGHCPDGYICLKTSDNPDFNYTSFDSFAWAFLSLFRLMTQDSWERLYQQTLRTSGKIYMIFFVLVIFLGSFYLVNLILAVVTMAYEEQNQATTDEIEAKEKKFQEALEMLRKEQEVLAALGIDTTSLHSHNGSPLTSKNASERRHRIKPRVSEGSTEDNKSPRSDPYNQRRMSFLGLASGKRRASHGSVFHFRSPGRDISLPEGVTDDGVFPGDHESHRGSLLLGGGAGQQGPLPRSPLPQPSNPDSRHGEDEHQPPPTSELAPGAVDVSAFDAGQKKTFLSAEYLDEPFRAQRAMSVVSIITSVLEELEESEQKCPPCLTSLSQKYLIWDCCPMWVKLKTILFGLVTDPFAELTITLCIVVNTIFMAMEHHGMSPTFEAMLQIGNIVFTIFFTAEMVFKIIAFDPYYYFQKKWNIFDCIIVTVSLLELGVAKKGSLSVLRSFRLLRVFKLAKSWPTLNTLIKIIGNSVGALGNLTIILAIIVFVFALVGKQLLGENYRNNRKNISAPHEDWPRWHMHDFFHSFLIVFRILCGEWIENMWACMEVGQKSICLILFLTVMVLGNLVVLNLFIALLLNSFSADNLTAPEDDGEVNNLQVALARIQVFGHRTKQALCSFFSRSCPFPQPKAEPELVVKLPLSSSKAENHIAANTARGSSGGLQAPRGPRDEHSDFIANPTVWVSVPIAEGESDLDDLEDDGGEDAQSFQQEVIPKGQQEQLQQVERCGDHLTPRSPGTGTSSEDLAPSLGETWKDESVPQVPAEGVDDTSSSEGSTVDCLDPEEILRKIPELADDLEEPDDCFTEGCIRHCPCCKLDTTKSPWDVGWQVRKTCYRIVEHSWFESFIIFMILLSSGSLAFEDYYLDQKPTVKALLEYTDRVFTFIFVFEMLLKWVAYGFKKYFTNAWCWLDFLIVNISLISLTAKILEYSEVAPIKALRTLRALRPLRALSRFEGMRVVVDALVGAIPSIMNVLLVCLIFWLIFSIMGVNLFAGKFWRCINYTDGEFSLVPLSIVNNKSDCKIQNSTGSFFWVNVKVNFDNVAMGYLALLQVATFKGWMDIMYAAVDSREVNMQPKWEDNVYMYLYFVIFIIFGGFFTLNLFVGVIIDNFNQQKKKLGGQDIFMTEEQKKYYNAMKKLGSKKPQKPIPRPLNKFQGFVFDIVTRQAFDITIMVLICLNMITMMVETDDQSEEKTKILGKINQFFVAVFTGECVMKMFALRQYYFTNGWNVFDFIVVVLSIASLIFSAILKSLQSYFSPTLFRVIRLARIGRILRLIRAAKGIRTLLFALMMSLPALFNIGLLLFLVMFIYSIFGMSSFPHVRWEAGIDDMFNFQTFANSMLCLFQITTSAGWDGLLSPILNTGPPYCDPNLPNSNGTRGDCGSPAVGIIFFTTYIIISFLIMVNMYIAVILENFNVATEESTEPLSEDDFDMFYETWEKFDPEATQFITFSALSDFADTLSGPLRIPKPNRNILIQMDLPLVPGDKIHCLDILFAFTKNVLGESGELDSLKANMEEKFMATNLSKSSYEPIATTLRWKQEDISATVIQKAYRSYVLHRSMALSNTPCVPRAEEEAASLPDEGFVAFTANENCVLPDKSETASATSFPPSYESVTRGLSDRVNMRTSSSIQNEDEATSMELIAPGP
T1 sequence (Q9NY72 23-215 partner): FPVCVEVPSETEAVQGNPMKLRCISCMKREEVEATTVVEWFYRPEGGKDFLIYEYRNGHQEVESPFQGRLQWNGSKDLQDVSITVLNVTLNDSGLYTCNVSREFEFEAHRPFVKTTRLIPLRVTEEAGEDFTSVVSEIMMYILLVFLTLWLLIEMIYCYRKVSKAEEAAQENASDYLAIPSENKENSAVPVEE

Row | IC50 [1] | IC50 [2] | Compound | other results
1 | 50 to 100 nM | 50 to 100 nM | COc1cc(C#N)ccc1Oc1ncc(-c2cn(C)nc2C)c(C)c1C(=O)Nc1cccc([S@](C)(=N)=O)c1 [Example 27C, (R)-2-(4-cyano-2-methoxyphenoxy)-5-(1,3-dimethyl-1H-pyrazol-4-yl)-4-methyl-N-(3-(S-methylsulfonimidoyl)phenyl)nicotinamide] | –
2 | > 200 nM | > 200 nM | Cc1nc(F)ccc1Oc1ncc(C(F)F)c(C)c1C(=O)Nc1ccnc(S(C)(=N)=O)c1 (stereo not drawn) [Example 48C, 5-(difluoromethyl)-2-((6-fluoro-2-methylpyridin-3-yl)oxy)-4-methyl-N-(2-(S-methylsulfonimidoyl)pyridin-4-yl)nicotinamide] | –
3 | < 5 nM | < 5 nM | Cc1nc(F)ccc1Oc1ncc(C(F)(F)F)c(C)c1C(=O)Nc1cccc([S@@](C)(=O)=NCCN)c1 [Example 43C, (R)—N-(3-(N-(2-aminoethyl)-S-methylsulfonimidoyl)phenyl)-2-((6-fluoro-2-methylpyridin-3-yl)oxy)-4-methyl-5-(trifluoromethyl)nicotinamide] | –
4 | 50 to 100 nM | 50 to 100 nM | Cc1nc(F)ccc1Oc1nnc(C(F)(F)F)c(C)c1C(=O)Nc1cccc([S@](C)(=N)=O)c1 [Example 9C, (R)-3-((6-fluoro-2-methylpyridin-3-yl)oxy)-5-methyl-N-(3-(S-methylsulfonimidoyl)phenyl)-6-(trifluoromethyl)pyridazine-4-carboxamide] | –
5 | < 5 nM | < 5 nM | Cc1nc(F)ccc1Oc1ncc(C(F)(F)F)c(C)c1C(=O)Nc1cccc([S@@](C)(=O)=NCCN(C)C)c1 [Example 91C] | –

The remaining lines, values behind:

Row | Compound | IC50 [1] | IC50 [2] | other results
6 | Cc1nc(F)ccc1Oc1cc(C(F)(F)F)ccc1C(=O)Nc1cccc([S@@](C)(=O)=NC(=O)[C@@H]2CCCN2)c1 [Example 8B, (S)—N—((R)-(3-(2-((6-fluoro-2-methylpyridin-3-yl)oxy)-4-(trifluoromethyl)benzamido)phenyl)(methyl)(oxo)-λ^6-sulfaneylidene)pyrrolidine-2-carboxamide formate] | – | – | IC50 (P1 measurement, resting state block, holding potential −120 mV, second set of compounds, read-out: P1 (IC50, resting state block)): < 5 nM; IC50 (P2 measurement, inactivated state block, inactivation step −35 mV 10 sec, second set of compounds, read-out: P2 (IC50, inactivated state block)): < 5 nM
7 | COc1c(Oc2cc(C(F)(F)F)nnc2C(=O)Nc2cccc(S(C)(=O)=O)c2)ccc(F)c1F [Example 32C, 4-(3,4-difluoro-2-methoxyphenoxy)-N-(3-(methylsulfonyl)phenyl)-6-(trifluoromethyl)pyridazine-3-carboxamide] | 50 to 100 nM | 50 to 100 nM | –
8 | CNCC(=O)N=[S@](C)(=O)c1cccc(NC(=O)c2ccc(C(F)(F)F)cc2Oc2ccc(F)nc2C)c1 [Example 10B, (R)-2-((6-fluoro-2-methylpyridin-3-yl)oxy)-N-(3-(S-methyl-N-(methylglycyl)sulfonimidoyl)phenyl)-4-(trifluoromethyl)benzamide] | – | – | IC50 [3]: 5 to 50 nM; IC50 [4]: 5 to 50 nM
9 | Cc1nc(F)ccc1Oc1cc(C(F)(F)F)c(Cl)cc1C(=O)Nc1cccc([S@](C)(=N)=O)c1 [Example 1A, (R)-5-chloro-2-((6-fluoro-2-methylpyridin-3-yl)oxy)-N-(3-(S-methylsulfonimidoyl)phenyl)-4-(trifluoromethyl)benzamide] | – | – | IC50 [5]: < 5 nM; IC50 [6]: < 5 nM
10 | Cc1nc(F)ccc1Oc1ccc(C(F)(F)F)c(C)c1C(=O)Nc1cccc([S@@](C)(=O)=NC(=O)[C@@H](C)N)c1 [Example 24B] | – | – | IC50 [3]: < 5 nM; IC50 [4]: < 5 nM
11 | Cc1nc(F)ccc1Oc1ncc(C(F)(F)F)c(C)c1C(=O)Nc1cccc([S@@](C)(=O)=NC(=O)[C@@H]2C[C@@H](O)CN2)c1 [Example 17D, 2-((6-fluoro-2-methylpyridin-3-yl)oxy)-N-(3-((R)—N-((2S,4R)-4-hydroxypyrrolidine-2-carbonyl)-S-methylsulfonimidoyl)phenyl)-4-methyl-5-(trifluoromethyl)nicotinamide] | – | – | IC50 (P1 (IC50, resting state block), P1 measurement, resting state block, holding potential −120 mV, fourth set of compounds): < 5 nM; IC50 (P2 (IC50, inactivated state block), P2 measurement, inactivated state block, inactivation step −35 mV 10 sec, fourth set of compounds): < 5 nM
12 | Cc1nc(F)ccc1Oc1cc(C(F)(F)F)c(Cl)c(F)c1C(=O)Nc1ccnc([S@](C)(=N)=O)c1 [Example 41A] | – | – | IC50 [5]: < 5 nM; IC50 [6]: < 5 nM
